Test results as given in PMC9267659, “Directed Evolution of Phi Class Glutathione Transferases Involved in Multiple-Herbicide Resistance of Grass Weeds and Crops” (International Journal of Molecular Sciences, 2022).
Residue numbers refer to the chain shown, from its start.

Key:
AmGSTF [1] = target: T1, AmGSTF (Alopecurus myosuroides, UniProt Q9ZS17); assay: steady-state kinetics, CDNB conjugation; assay type: biochemical; conditions: read-out: S0.5 (mM) / CDNB; co-substrate GSH; 0.1 M sodium phosphate pH 6.5, 37 °C; positive cooperativity, nH 1.5
T1 construct: gene GST2c; full length, synthetic gene, His-tagged (C-His vector), E. coli, Ni-IDA-Sepharose purified, homodimer
T1 sequence (Q9ZS17 1-219): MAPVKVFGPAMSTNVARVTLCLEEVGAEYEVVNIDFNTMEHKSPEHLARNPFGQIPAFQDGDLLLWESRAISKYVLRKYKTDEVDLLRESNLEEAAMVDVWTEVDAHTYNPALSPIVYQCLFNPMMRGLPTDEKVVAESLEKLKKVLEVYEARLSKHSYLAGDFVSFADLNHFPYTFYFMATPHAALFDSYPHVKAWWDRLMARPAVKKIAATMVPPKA
Excerpt: steady-state kinetics, CDNB conjugation on AmGSTF

TdGSTF [2] = target: T2, TdGSTF (Triticum turgidum, UniProt A0A9R0QM20); assay: steady-state kinetics, CDNB conjugation; assay type: biochemical; conditions: read-out: S0.5 (mM) / CDNB; co-substrate GSH; 0.1 M sodium phosphate pH 6.5, 37 °C; positive cooperativity, nH 1.43
T2 construct: gene TRITD_1Bv1G036980; full length, pEXP5-CT/TOPO template, His-tagged, E. coli, Ni-IDA-Sepharose purified, homodimer
T2 sequence (A0A9R0QM20 1-219): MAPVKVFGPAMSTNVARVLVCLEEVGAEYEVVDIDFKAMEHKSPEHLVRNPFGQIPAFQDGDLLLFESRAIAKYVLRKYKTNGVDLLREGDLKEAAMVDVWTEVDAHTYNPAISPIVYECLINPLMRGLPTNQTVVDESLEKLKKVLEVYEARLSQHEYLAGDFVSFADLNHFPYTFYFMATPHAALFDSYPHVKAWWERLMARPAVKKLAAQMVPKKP
Excerpt: steady-state kinetics, CDNB conjugation on TdGSTF

LrGSTF [3] = target: T3, LrGSTF (Lolium rigidum, UniProt M5BPX4); assay: steady-state kinetics, CDNB conjugation; assay type: biochemical; conditions: read-out: S0.5 (mM) / CDNB; co-substrate GSH; 0.1 M sodium phosphate pH 6.5, 37 °C; positive cooperativity, nH 1.41
T3 construct: gene GST; full length, synthetic gene, His-tagged (C-His vector), E. coli, Ni-IDA-Sepharose purified, homodimer
T3 sequence (M5BPX4 1-219): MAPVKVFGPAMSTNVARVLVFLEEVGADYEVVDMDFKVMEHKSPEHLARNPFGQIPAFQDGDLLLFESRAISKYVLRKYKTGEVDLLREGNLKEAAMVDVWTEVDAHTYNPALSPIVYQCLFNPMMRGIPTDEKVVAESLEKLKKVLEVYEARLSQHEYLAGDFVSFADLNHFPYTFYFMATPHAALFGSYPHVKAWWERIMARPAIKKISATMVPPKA
Excerpt: steady-state kinetics, CDNB conjugation on LrGSTF

HvGSTF [4] = target: T4, HvGSTF (Hordeum vulgare, UniProt Q8VWW3); assay: steady-state kinetics, CDNB conjugation; assay type: biochemical; conditions: read-out: S0.5 (mM) / CDNB; co-substrate GSH; 0.1 M sodium phosphate pH 6.5, 37 °C; positive cooperativity, nH 1.46
T4 construct: gene GST6; full length, pEXP5-CT/TOPO template, His-tagged, E. coli, Ni-IDA-Sepharose purified, homodimer
T4 sequence (Q8VWW3 1-219): T2 sequence (A0A9R0QM20 1-219) with N82D, G83E, D91N, I113L, E158K, R200S, V207I
Excerpt: steady-state kinetics, CDNB conjugation on HvGSTF

sh101 [5] = system: T5, sh101; assay: steady-state kinetics, CDNB conjugation; assay type: biochemical, Alopecurus myosuroides; conditions: co-substrate GSH; 0.1 M sodium phosphate pH 6.5, 37 °C; nH 1.1; read-out: S0.5 (mM) / CDNB
T5 construct: gene AmGSTF; DNA-shuffled GSTF, 11 mutations vs AmGSTF (named in text: S90G, E93K, Q119E, F122I, M125L, DEK132-134NQT)
Excerpt: steady-state kinetics, CDNB conjugation on sh101

sh155 [6] = system: T6, sh155; assay: steady-state kinetics, CDNB conjugation; assay type: biochemical, Alopecurus myosuroides; conditions: co-substrate GSH; 0.1 M sodium phosphate pH 6.5, 37 °C; nH 1.02; read-out: S0.5 (mM) / CDNB
T6 construct: gene AmGSTF; DNA-shuffled GSTF, 17 mutations vs AmGSTF (named in text: S90G, E93K, Q119E, F122I, M125L, DEK132-134NQT)
Excerpt: steady-state kinetics, CDNB conjugation on sh155

sh168 = system: T7, sh168; assay: dose-response inhibition of GST activity; assay type: biochemical, Alopecurus myosuroides
T7 construct: gene AmGSTF; has K93; keeps F122, M125 and DEK132-134 of AmGSTF; C-His, E. coli, dimer
Excerpt: dose-response inhibition of GST activity on sh168

TdGSTF [7] = target: T2, TdGSTF; assay: dose-response inhibition of GST activity; assay type: biochemical
Excerpt: dose-response inhibition of GST activity on TdGSTF

AmGSTF [8] = target: T1, AmGSTF; assay: dose-response inhibition of GST activity; assay type: biochemical
Excerpt: dose-response inhibition of GST activity on AmGSTF

sh101 [9] = system: T5, sh101; assay: dose-response inhibition of GST activity; assay type: biochemical, Alopecurus myosuroides
Excerpt: dose-response inhibition of GST activity on sh101

HvGSTF [10] = target: T4, HvGSTF; assay: dose-response inhibition of GST activity; assay type: biochemical
Excerpt: dose-response inhibition of GST activity on HvGSTF

LrGSTF [11] = target: T3, LrGSTF; assay: dose-response inhibition of GST activity; assay type: biochemical
Excerpt: dose-response inhibition of GST activity on LrGSTF

sh155 [12] = system: T6, sh155; assay: dose-response inhibition of GST activity; assay type: biochemical, Alopecurus myosuroides
Excerpt: dose-response inhibition of GST activity on sh155

sh49 = system: T8, sh49; assay: dose-response inhibition of GST activity; assay type: biochemical, Alopecurus myosuroides
T8 construct: gene AmGSTF; keeps F122, M125, E93 and DEK132-134 of AmGSTF; C-His, E. coli, dimer
Excerpt: dose-response inhibition of GST activity on sh49

Compound | Km (AmGSTF [1]) [mM] | Km (TdGSTF [2]) [mM] | Km (LrGSTF [3]) [mM] | Km (HvGSTF [4]) [mM] | Km (sh101 [5]) [mM] | Km (sh155 [6]) [mM] | IC50 (sh168) [µM] | IC50 (TdGSTF [7]) [µM] | IC50 (AmGSTF [8]) [µM] | IC50 (sh101 [9]) [µM] | IC50 (HvGSTF [10]) [µM] | IC50 (LrGSTF [11]) [µM] | IC50 (sh155 [12]) [µM] | IC50 (sh49) [µM]
O=[N+]([O-])c1ccc(Cl)c([N+](=O)[O-])c1 [CDNB] | 0.65 ± 0.03 | 0.51 ± 0.02 | 0.76 ± 0.04 | 0.52 ± 0.01 | 0.41 ± 0.02 | 0.77 ± 0.06 |  |  |  |  |  |  |  | 
CCCCOCN(C(=O)CCl)c1c(CC)cccc1CC [butachlor] |  |  |  |  |  |  | 3.1 ± 0.08 | 9.9 ± 0.2 | 7.3 ± 0.4 | 5.9 ± 0.4 | 9.2 ± 0.6 | 7.1 ± 0.5 | 3.4 ± 0.1 | 2.6 ± 0.04
